Source: patent US7148013B2, “Complex of Hepatitis B virus polymerase with p11 and method for controlling movement of the complex in HepG2 cell” (Korea Institute of Science and Technology, priority 2002, dated 2006)

Test system: HBVPol/p11 complex
Assay: Immunofluorescent experiment and confocal microscopy: intracellular location of HBVPol/p11 complex in HepG2 cells co-delivered with HBVPol and p11
Assay type: cell-based, human
Settings: HepG2 cell co-delivered with HBVPol and p11
Method: HepG2 was grown on a chamber slide charged with DMEM (supplemented with 0.1 mM non-essential amino acids and 10% FBS, culturing condition: 37° C., moisturized with a mixture of 95:5% (v/v) air and CO2), and Effectene (Qiagen) was used to deliver genes into the cell. Cells treated with EGTA and to which the gene was delivered, were washed with PBS and fixed with 100% methanol at −20° C. for 15 minutes. The slide was treated with a blocking solution (1% goat serum/PBS) at room temperature for 30 minutes and then reacted with anti-Myc rabbit (1:200) antibody against p11, anti-Flag rabbit (1:200) antibody against HBVPol, or anti-PML mouse (1:200) antibody at 4° C. for one day.
After reaction, the cells were reacted with anti-rabbit or anti-mouse goat secondary antibody, to which rhodamine or fluorscein isothiocyanate was attached, at 37° C. and then a coverslip was attached thereto with mounting solution. […]

| Structure (SMILES) | intracellular location of HBVPol and p11 (0.5 mM for 48 hours, FIG. 5a) | intracellular location of HBVPol and p11 (30 uM for 24 hours, FIG. 5b) |
| --- | --- | --- |
| O=C(O)CN(CCOCCOCCN(CC(=O)O)CC(=O)O)CC(=O)O [EGTA] | most of HBVPol and p11 migrated into the nucleus of the cell |  |
| CC(C)[C@@H]1NC(=O)[C@H](C)OC(=O)[C@@H](C(C)C)NC(=O)[C@@H](C(C)C)OC(=O)[C@H](C(C)C)NC(=O)[C@H](C)OC(=O)[C@@H](C(C)C)NC(=O)[C@@H](C(C)C)OC(=O)[C@H](C(C)C)NC(=O)[C@H](C)OC(=O)[C@@H](C(C)C)NC(=O)[C@@H](C(C)C)OC1=O [valinomycine] |  | HBVPol and p11 remained in the cytoplasm of the cell |
